Columns and labels:
Assay in all cases: radiometric kinase assay, SDS-PAGE
Format in all cases: biochemical
[1] = target: T1, Drosophila (Dm) Chk1 (Drosophila melanogaster, UniProt O61661); settings: phosphate donor, 300 μM ATP spiked with labelled compound; acceptor MCM2-7 / CMG / histone H1; 10 mM Mg acetate, pH 7.6, 30 °C
T1 construct: gene grp
T1 sequence (O61661 1-512): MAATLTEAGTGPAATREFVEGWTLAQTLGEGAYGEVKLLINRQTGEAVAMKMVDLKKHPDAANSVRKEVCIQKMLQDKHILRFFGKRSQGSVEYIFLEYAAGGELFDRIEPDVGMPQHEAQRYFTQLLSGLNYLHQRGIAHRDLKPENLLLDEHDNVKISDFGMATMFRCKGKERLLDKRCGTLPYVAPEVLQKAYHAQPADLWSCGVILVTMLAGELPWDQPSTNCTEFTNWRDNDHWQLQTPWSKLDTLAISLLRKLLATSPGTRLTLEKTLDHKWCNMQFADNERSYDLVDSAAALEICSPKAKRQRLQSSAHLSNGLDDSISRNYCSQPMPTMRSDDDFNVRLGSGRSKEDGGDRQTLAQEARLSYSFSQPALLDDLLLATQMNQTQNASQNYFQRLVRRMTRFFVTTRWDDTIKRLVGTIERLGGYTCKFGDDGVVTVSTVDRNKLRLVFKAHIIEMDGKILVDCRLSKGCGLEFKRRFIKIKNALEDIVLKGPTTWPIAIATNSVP

[2] = target: T2, human (Hs) Chk1 (Homo sapiens, UniProt O14757); settings: phosphate donor, 300 μM ATP spiked with labelled compound; acceptor MCM2-7 / CMG / histone H1; 10 mM Mg acetate, pH 7.6, 30 °C
T2 construct: gene CHEK1
T2 sequence (O14757 1-476): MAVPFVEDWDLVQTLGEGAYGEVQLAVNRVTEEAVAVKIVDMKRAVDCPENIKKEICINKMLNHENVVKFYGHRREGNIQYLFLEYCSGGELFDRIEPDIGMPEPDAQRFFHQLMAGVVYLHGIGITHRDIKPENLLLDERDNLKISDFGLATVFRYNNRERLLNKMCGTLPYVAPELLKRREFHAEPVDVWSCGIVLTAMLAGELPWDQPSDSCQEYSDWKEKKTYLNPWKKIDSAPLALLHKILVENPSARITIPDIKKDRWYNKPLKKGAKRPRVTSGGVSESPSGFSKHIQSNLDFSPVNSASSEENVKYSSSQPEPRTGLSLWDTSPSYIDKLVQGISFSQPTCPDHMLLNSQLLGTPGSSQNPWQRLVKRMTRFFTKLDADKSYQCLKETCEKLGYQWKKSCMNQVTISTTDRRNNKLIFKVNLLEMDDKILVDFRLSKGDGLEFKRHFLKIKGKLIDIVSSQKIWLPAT

[3] = target: T3, mouse (Mm) Chk2 (Mus musculus, UniProt Q9Z265); settings: phosphate donor, 300 μM ATP spiked with labelled compound; acceptor histone H1 / Cdc25 peptide; 10 mM Mg acetate, pH 7.6, 30 °C
T3 construct: gene Chek2

[4] = target: T4, human (Hs) Chk2 (Homo sapiens, UniProt O96017); settings: phosphate donor, 300 μM ATP spiked with labelled compound; acceptor histone H1 / Cdc25 peptide; 10 mM Mg acetate, pH 7.6, 30 °C
T4 construct: gene CHEK2
T4 sequence (O96017 whole entry): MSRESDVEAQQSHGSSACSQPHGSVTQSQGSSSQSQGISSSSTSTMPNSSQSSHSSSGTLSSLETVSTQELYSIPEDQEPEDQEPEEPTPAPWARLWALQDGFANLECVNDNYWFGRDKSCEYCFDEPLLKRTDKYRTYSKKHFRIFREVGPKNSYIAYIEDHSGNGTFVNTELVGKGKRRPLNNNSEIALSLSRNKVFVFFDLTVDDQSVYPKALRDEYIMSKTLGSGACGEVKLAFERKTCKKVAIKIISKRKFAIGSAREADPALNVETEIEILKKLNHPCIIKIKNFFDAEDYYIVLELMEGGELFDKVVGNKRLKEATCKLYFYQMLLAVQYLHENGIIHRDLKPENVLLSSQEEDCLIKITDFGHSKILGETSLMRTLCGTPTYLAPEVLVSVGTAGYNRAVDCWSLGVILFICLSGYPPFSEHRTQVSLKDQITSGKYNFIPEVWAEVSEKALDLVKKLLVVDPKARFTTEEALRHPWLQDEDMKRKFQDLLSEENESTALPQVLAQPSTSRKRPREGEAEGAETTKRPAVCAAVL

T3 sequence (Q9Z265 whole entry): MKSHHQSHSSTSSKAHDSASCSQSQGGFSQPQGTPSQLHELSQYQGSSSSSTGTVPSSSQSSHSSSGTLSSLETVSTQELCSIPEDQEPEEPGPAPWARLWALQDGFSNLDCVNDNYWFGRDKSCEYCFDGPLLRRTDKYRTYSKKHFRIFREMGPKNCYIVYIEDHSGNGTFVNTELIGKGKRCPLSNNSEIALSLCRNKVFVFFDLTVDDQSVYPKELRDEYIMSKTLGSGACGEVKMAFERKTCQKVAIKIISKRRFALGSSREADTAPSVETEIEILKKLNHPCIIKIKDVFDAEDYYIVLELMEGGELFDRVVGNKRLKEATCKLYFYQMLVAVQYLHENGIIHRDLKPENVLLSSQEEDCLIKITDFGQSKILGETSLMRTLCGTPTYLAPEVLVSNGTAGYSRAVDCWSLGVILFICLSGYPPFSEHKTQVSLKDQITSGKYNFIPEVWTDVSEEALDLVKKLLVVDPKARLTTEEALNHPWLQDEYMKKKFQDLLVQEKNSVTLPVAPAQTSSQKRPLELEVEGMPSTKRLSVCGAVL

Nc1ncnc2c1ncn2[C@@H]1O[C@H](COP(=O)(O)OP(=O)(O)OP(=O)(O)O)[C@@H](O)[C@H]1O [ATP]
radiometric kinase assay, SDS-PAGE [1]: Drosophila Chk1 phosphorylated, on average, close to one residue per MCM2-7 complex | radiometric kinase assay, SDS-PAGE [2]: The Chk1 proteins from Drosophila and humans phosphorylated MCM2-7 with similar efficiency | radiometric kinase assay, SDS-PAGE [3]: human and mouse Chk2 were able to efficiently phosphorylate Cdc25 and histone H1 control substrates | radiometric kinase assay, SDS-PAGE [4]: human and mouse Chk2 were able to efficiently phosphorylate Cdc25 and histone H1 control substrates
